Where a SMILES comes first, the peptide text is derived from it. Bridges are numbered along the chain shown (N, C = ends). [ ]: non-standard residue; d: D form. Orn = NCCC[C@H](N)C(=O)O; Mpa = O=C(O)CCS
Experiments:
IVF/ICSI patients [1] = settings: cited from earlier work
IVF/ICSI patients [2] = experiment: BASIC randomized, placebo-controlled, double-blind clinical trial: barusiban subcutaneously on the day of transfer, implantation in IVF/ICSI patients; format: in vivo, human
Description: Example 1: A randomized, placebo-controlled, double-blind, parallel groups, multinational, multicenter trial assessing the effect of barusiban administered subcutaneously on the day of transfer on implantation and pregnancy rates in IVF/ICSI patients
BASIC was a randomized, double-blind, placebo-controlled, parallel groups, multinational, multicenter trial. It was designed to evaluate the effects of barusiban, administered either on the day of cleavage-stage embryo transfer or on the day of blastocyst transfer, on ongoing implantation rate in IVF/ICSI patients. The patients underwent controlled ovarian stimulation in the long GnRH agonist or GnRH antagonist protocol, received hCG for triggering of final follicular maturation, had undergone oocyte retrieval, and had daily luteal phase support by supplementation with vaginal progesterone starting on day 1 post-retrieval, and transfer on day 3 or 5 post-retrieval. Patients were randomized in a 1:1 ratio to either the barusiban group or the placebo group, with stratification according to the day of transfer (day 3 post-retrieval or day 5 post-retrieval) and the number of embryos/blastocysts to be transferred (1 or 2). In total, 255 IVF/ICSI patients were randomized in the trial and contributing with 440 embryos/blastocysts.
Investigational medicinal product, i.e., barusiban or placebo according to randomization, was administered as subcutaneous injections at two time points: 1st administration of 40 mg barusiban or placebo was […] prior to transfer and the 2nd administration of 10 mg barusiban or placebo was […] after the 1st administration.
Transfer was performed on day 3 (cleavage-stage embryos) or day 5 (blastocysts) after oocyte retrieval. On day 3, only embryos of good quality defined as ≥6 blastomeres and ≤20% fragmentation were transferred. On day 5, blastocysts with expansion and hatching status 3, 4, 5 or 6 were transferred. The actual number of transferred embryos/blastocysts for each individual patient depended on the availability of embryos; blastocysts of the required morphological quality, local regulations and clinical practice for the patient's age, but the maximum number was 2.
Key aspects related to the transfer procedure had been standardized. A speculum was inserted into the vagina and cleaning of the vagina and cervix was done according to local practices but with minimal manipulation and disturbance. Soft or ultrasoft catheters were used. The outer sheath of the catheter was inserted just protruding to the internal os (i.e. keeping the outer sheath in the cervical canal). The embryo(s)/blastocyst(s) were loaded into the inner sheath which was then inserted through the outer sheath. Using abdominal ultrasound guidance, the embryo(s)/blastocyst(s) were placed 1.5-2.0 cm from the fundus. The time from loading the inner catheter to placing the embryo(s)/blastocyst(s) should not have exceeded 1 min. After placement, the inner and outer catheters were withdrawn and checked for retained embryo(s)/blastocyst(s), mucus and blood. After confirmation that there were no embryo(s)/blastocyst(s) left in the catheters, the speculum was subsequently removed; this occurred approximately within 2 min after placement of the embryo(s)/blastocyst(s). Any difficulties/eventualities occurring during the transfer procedure were recorded.
Patients received vaginal progesterone tablets 100 mg twice daily from the day after oocyte retrieval and until the day of the clinical pregnancy visit. On the day of transfer, patients should insert the progesterone tablets at least 3 hours before transfer and at least 3 hours after transfer. Ongoing implantation rate (primary endpoint) was defined as the number of intrauterine viable fetuses 10-11 weeks after transfer divided by number of embryos/blastocysts transferred. […]

Molecule | increase in implantation or live birth rates compared to placebo (IVF/ICSI patients [1]; administration on day 2 or day 3 post-retrieval (early luteal phase)) | live birth rate (IVF/ICSI patients [1]; cleavage-stage embryo transfer on day 2 or day 3 post-retrieval, N=800, placebo 38.0%) [%] | effect on improving ongoing implantation rate (IVF/ICSI patients [2]; blastocyst transfer on day 5 (receptive stage), p=0.0270) | odds ratio for ongoing implantation rate (IVF/ICSI patients [2]; blastocyst transfer on day 5 post-retrieval, vs placebo, CI 1.1-4.7, p=0.0270) | relative Δ of ongoing implantation rate vs placebo (IVF/ICSI patients [2]; blastocyst transfers (day 5), adjusted means 45% vs 27%) [%] | adjusted mean of ongoing implantation rate (IVF/ICSI patients [2]; blastocyst transfers (day 5 post-retrieval), placebo 27%) [%] | effect on ongoing implantation rate (IVF/ICSI patients [2]; cleavage-stage embryo transfer on day 3 (pre-receptive stage)) | odds ratio for ongoing implantation rate (IVF/ICSI patients [2]; cleavage-stage embryo transfer on day 3 post-retrieval, vs placebo, CI 0.3-1.2, p=0.1509) | odds ratio for ongoing implantation rate (IVF/ICSI patients [2]; overall (day 3+day 5), barusiban vs placebo, logistic regression, PP, 95% CI 0.7-1.8, p=0.6960) | observed overall ongoing implantation rate (IVF/ICSI patients [2]; overall (day 3+day 5 transfers), per-protocol population, 40 mg + 10 mg s.c. on day of transfer) [%] | ongoing implantation rate (IVF/ICSI patients [2]; overall, intention-to-treat (ITT) population) [%]
CCOc1ccc(C[C@H]2NC(=O)CCSSC[C@@H](C(=O)N3CCC[C@H]3C(=O)N[C@@H](CCCN)C(=O)NCC(N)=O)NC(=O)[C@H](CC(N)=O)NC(=O)[C@H]([C@@H](C)O)NC(=O)[C@H]([C@@H](C)CC)NC2=O)cc1 [atosiban, 1-(3-mercaptopropanoic acid)-2-(O-ethyl-D-tyrosine)-4-L-threonine-8-L-ornithine-oxytocin] ([Mpa][dY](Et)ITNCP[Orn]G-NH2; disulfide 1-6) | no significant increase | 39.8 | – | – | – | – | – | – | – | – | –
barusiban | – | – | significant | 2.3 | 67 | 45 | No effect | 0.3 | 1.1 | 27.1 | 26.2
